# Test results published in patent US20260028404A1 (UNIVERSITY OF KANSAS, priority 2022, published 2026).
# Entries after “also recorded” stand apart in the source; their conditions may differ.
# Key:
# [1] = mouse, in vivo; cited from earlier work
# [2] = mouse, in vivo; cited from earlier work; remark: listed apart in the source
# [3] = tested on: AT84 model; settings: low-dose GA (300 μg) alone, previous study; cited from earlier work
# [4] = tested on: differentially expressed genes; experiment: RNAseq differential gene expression, pre vs post treatment tumor; type: in vivo, human
# Description: RNASeq Analysis: A cutoff linear fold-change of 4 was used to select for the differentially expressed genes in each patient. Gene ontology (GO) of the biological process, functional annotation clustering, and Kyoto Encyclopedia of Genes and Genomes (KEGG) pathway analysis of the differentially expressed genes was performed using Database for Annotation, Visualization, and Integrated Discovery (DAVID) v2021^7,8.
# Immune biomarkers were assessed in tumor biopsies and compared with those in the resected tumors after treatment. Conventional RNA sequencing and a geographical sequencing platform (GeoMx) were used to assess immune markers at the transcriptional level. In the RNA-Seq gene expression analysis, genes were filtered for differentially expressed genes (|FC|<4) between pre-and post-samples for three patients.
# [5] = Window of opportunity trial: adverse events of intratumoral/peritumoral Copaxone injections; type: in vivo, human
# Description: Subjects whose tumors were accessible for intratumoral, percutaneous injection and were planned for surgery as the primary treatment were eligible if no other treatment between initial biopsy and surgery was anticipated. During the treatment period, eligible subjects received Copaxone® at 40 mg intratumorally for up to 3 times a week and at least 48 hours apart until 24 hours before the planned surgery. This dosing regimen was consistent with the label for subcutaneous injections of Copaxone®.
# This study is an open label single arm window of opportunity trial in patients with resectable solid malignancies whose planned primary treatment is surgical resection conducted at the University of Kansas Cancer Center (KUCC). The patients had to be at least 18 years old with previously untreated histologically confirmed malignant tumor that is percutaneously accessible for intratumoral injection. The injectable tumor must be at least 5 mm in diameter using standard measuring tape. Pretreatment archival tumor tissue consisting of formalin-fixed, paraffin-embedded (FFPE) tumor tissue obtained from standard of care diagnostic biopsy must be available in order to be eligible for the trial. Patients whose lesions are in close proximity to vascular structures (i.e., carotid artery or tumors close to other vital organs such as the trachea), with mucosal lesions only, with known hypersensitivity to Copaxone or with a known condition that leads to immunosuppression such as AIDS or concurrent use of immunosuppressive therapy were considered ineligible. Approval for the study was granted through the institutional review board at University of Kansas Cancer Center and all patients provided written informed consent before study entry. This trial was performed according to the Declaration of Helsinki principles. The KUCC Data and Safety Monitoring Committee (DSMC) performed the oversight of the monitoring of participant safety, conduct and scientific progress of research protocols, and the validity and integrity of the data for clinical trials.
# Study treatment: Treatment was administered on an outpatient basis prior to surgery. […] Doses were administered at least 48 hours apart and the last dose given within 96 hours of surgery. This window of 96 hours was chosen because we hypothesized that any immune changes due to Copaxone may remain apparent within 96 hours. No dose adjustments, modifications or delays due to Copaxone® related toxicity were allowed.
# Efforts were made to administer the full dose into the lesion, unless it was deemed not practicable by the treating investigator. Tumors were injected using a 28-gauge or smaller needle. Glatiramer acetate (Copaxone®) was thoroughly distributed within the injected tumor using a “fanning method” (to distribute the injection across several angles throughout the lesion to maximize the spread of glatiramer acetate (Copaxone®) in the tumor). The use of local anesthetic prior to Copaxone injection was allowed.
# Safety Assessments: Adverse events were assessed at baseline, during Copaxone® dose administration and at time of surgery or end of treatment visit. The revised NCI Common Terminology Criteria for Adverse Events (CTCAE) version 5.0 was utilized for AE reporting and toxicity assessment. Complete blood count, chemistry and INR were done at baseline.
# A single-arm, open-label, preoperative window of opportunity trial was conducted to evaluate the feasibility, safety, and local effects of intratumoral/peritumoral injections of Copaxone®. Subjects whose tumors were accessible for intratumoral, percutaneous injection and were planned for surgery as the primary treatment were eligible if no other treatment between initial biopsy and surgery was anticipated. During the treatment period, eligible subjects received Copaxone® at 40 mg intratumorally for up to 3 times a week and at least 48 hours apart until 24 hours before the planned surgery. […]
substance,measurement,setting,value
Glatiramer acetate [GA],retention of co-delivered immunostimulants at injection site,[1],retaining other HIT-IT such as CpG and PolyI: C at the intratumoral site of injection
same,aggregate formation near the injection site,[2],formed spherical aggregates near the injection site
same,tumor growth / tumor size,[3],significantly increased tumor growth; also recorded: increases tumor size
same,"Gene Ontology enrichment, upregulated biological processes",[4]; all three patients,upregulation in genes involved in promoting an immune-rich tumor microenvironment
same,genes downregulated post treatment,[4]; patient 1,406 genes
same,genes upregulated post treatment,"[4]; patient 1, |FC|<4 filter as printed, listed as Copaxone",6355 genes
same,genes upregulated post treatment,"[4]; patient 1, |FC|<4 filter as printed, listed as Copaxone®","6,355 genes"
same,genes downregulated post treatment,[4]; patient 2,75 genes
same,genes upregulated post treatment,[4]; patient 2,647 genes
same,genes downregulated post treatment,[4]; patient 3,128 genes
same,genes upregulated post treatment,[4]; patient 3,5375 genes
same,"Gene Ontology enrichment, downregulated biological processes",[4]; three patients,No biological processes were consistently found to be downregulated post treatment
same,injection site reactions (overall),"[5]; intratumoral/peritumoral injection, patients",Injection site reactions were observed in and around tumor tissues
same,grade 2 or higher adverse events,"[5]; nine patients, Copaxone 40 mg intratumoral",no grade 2 or higher adverse events
same,treatment related adverse events reported (number),"[5]; nine patients, Copaxone 40 mg intratumoral, 1-3 injections",3
same,grade of treatment related adverse events,"[5]; nine patients, Copaxone 40 mg intratumoral, CTCAE v5.0",grade 1
same,Injection Site Reaction,"[5]; patient BCCa-Left Nasal Ala, 2 Copaxone injections",Grade 1-Mild
same,Injection Site Reaction,"[5]; patient BCCa-Left Nasal Ala, 2 Copaxone injections, listed as Copaxone",grade 1 injection site reaction described as pressure and itching
same,Injection Site Reaction,"[5]; patient BCCa-Right Flank, 3 Copaxone injections",1st inj. - Pain
same,Injection Site Reaction,"[5]; patient BCCa-Right Post. Neck, 2 Copaxone injections",Grade 1-Mild
same,Injection Site Reaction,"[5]; patient BCCa-Right Post. Neck, 2 Copaxone injections, listed as Copaxone",grade 1 burning with injection of lidocaine
same,Injection Site Reaction,"[5]; patient Melanoma-Left Scalp, 2 Copaxone injections",None
same,Injection Site Reaction,"[5]; patient Melanoma-Mid Back, 2 Copaxone injections",None
same,Injection Site Reaction,"[5]; patient SCCa-Right Cheek, 1 Copaxone injection",None
same,tolerability of intratumoral injections,[5]; patients,well tolerated
